Experimental data: patent US10857082B2, “Diarylalkanes as potent inhibitors of binuclear enzymes” (Unigen, Inc., priority 2004, dated 2020)
Entries after “also recorded” stand apart in the source; their conditions may differ. Where two headings read alike, the source gives them in different places.

Legend:
mushroom tyrosinase = mushroom tyrosinase (Agaricus bisporus, UniProt C7FF04); assay: Tyrosinase inhibition assay (L-DOPA to dopachrome, absorbance at 450 nm); format: biochemical
Method: (§1) A tyrosinase inhibition assay was carried out using the method reported by Jones et al. (2002) Pigment. Cell Res. 15:335. Using this method, the conversion of L-Dopa, a substrate of tyrosinase, into dopachrome is followed by monitoring absorption at 450 nm. Tyrosinase was prepared in 50 mM potassium phosphate buffer, pH 6.8 (assay buffer) at 2000 U/ml and stored at −20° C. in 1 ml aliquots prior to use. For use in assays, stock enzyme solutions were thawed and diluted to 200 U/ml with assay buffer. A 2 mM working solution of substrate, L-DOPA, was prepared in assay buffer for each assay. Samples were dissolved in 10% DMSO (0.5 ml) and diluted to 5 ml with assay buffer. The reaction mixture consisted of 0.050 ml 2 mM L-DOPA, 0.050 ml 200 U/ml mushroom tyrosinase and 0.050 ml inhibitor. Reaction volume was adjusted to 200 μl with assay buffer. Assays were performed in 96 well Falcon 3097 flat-bottom microtiter plates (Beckton Dickinson, N.J.). Appearance of dopachrome was measured with a WALLAC 1420 Multilable Counter (Turku, Finland). Average velocity was determined from linear enzyme rate as measured by change in absorbance (ΔA450) at 450 nm per minute. Percent inhibition of tyrosinase by test samples was determined by comparison of absorbance of samples versus control using formula (I): (Negative control absorption-sample absorption)/Negative control absorption×100 (1)
Inhibition of tyrosinase by synthetic diarylalkanes was measured using the method described in Example 2. The IC50 value of each sample was calculated using kinetics software to verify that the reaction was linear at a specified time and concentration.

DOPA oxidase activity = conditions: cited from earlier work
tyrosinase = assay: Enzyme inhibition kinetics with L-DOPA as substrate; format: biochemical, mushroom
Method: as §1, with “A 2 mM working solution of substrate, L-DOPA, was prepared in assay buffer for each assay.” left out, “The reaction mixture consisted of 0.050 ml 2 mM L-DOPA, 0.050 ml 200 U/ml mushroom tyrosinase and 0.050 ml inhibitor.” left out

B16 F1 cells [1] = assay: Inhibition of melanin production in B16 F1 cells with β-MSH induction; format: cell-based, mouse
Description: (§2) Color development was visually monitored each morning.

B16 F1 cells [2] = assay: Cell toxicity assay, lactate dehydrogenase (LDH)
Method: The inhibition of melanin production was evaluated using two different assays. In the first assay, the inhibition of melanin production was evaluated without induction by β-MSH; whereas in the second assay the inhibition of melanin production was measured with β-MSH induction in cell culture medium. Briefly, B16 F1 cells (ATCC #CRL-622) were grown to confluency and then seeded at 40,000 cells per well. The cells were allowed to attach overnight at 37° C. in a humidified environment containing 5% CO2. On day 2, inhibitors were added to the cells at concentrations ranging from 0-1000 μM in triplicate and allowed to incubate for four days. The amount of β-MSH required to induce melanin formation was determined by the addition of hormone at concentrations ranging from 0-1000 nM in ten-fold increments. Once the proper β-MSH concentration was determined, cells were seeded as above, allowed to attach overnight and then co-incubated with tyrosinase inhibitors at concentrations ranging from 0-1000 μM. Color development was visually monitored each morning. After the development of color, 200 μl of cell supernatant was removed from each well and absorbance was measured at 450 nm. The resulting readings were used to determine the IC50 for melanin formation in the cell assay with and without β-MSH induction. For an initial comparison of cell toxicity, the 250 μM treated wells were used to perform a lactate dehydrogenase assay (LDH). LDH is a metabolic enzyme that leaks out of damaged or dead cells. The enzyme converts a chromophore in the presence of NAD^+ to yield a color change that can be monitored spectrophotometrically.
The compound treated wells were used to perform a lactate dehydrogenase assay (LDH). LDH is a metabolic enzyme that leaks out of damaged or dead cells. The enzyme converts a chromophore in the presence of NAD^+ to yield a color change that can be monitored spectrophotometrically. The cytotoxicity was examined at a concentration of 250 μM. […] It should be noted however, that cytotoxicity at only one concentration (250 μM) was tested.

B16 F1 cells [3] = assay: Inhibition of melanin production in B16 F1 cells without β-MSH induction (endogenous); format: cell-based, mouse; conditions: for Inhibition of melanin production relative to kojic acid, in words: B-16 cell line model, with and without β-MSH induction
Description: as §2

[4] = test system: B16 F1 murine melanoma cells; conditions: read-out: IC50, melanin biosynthesis; cited from earlier work
[5] = biological target: human tyrosinase hydroxylase activity (Homo sapiens (Human), UniProt P14679); conditions: cited from earlier work
Sequence of human tyrosinase hydroxylase activity (P14679 19-529): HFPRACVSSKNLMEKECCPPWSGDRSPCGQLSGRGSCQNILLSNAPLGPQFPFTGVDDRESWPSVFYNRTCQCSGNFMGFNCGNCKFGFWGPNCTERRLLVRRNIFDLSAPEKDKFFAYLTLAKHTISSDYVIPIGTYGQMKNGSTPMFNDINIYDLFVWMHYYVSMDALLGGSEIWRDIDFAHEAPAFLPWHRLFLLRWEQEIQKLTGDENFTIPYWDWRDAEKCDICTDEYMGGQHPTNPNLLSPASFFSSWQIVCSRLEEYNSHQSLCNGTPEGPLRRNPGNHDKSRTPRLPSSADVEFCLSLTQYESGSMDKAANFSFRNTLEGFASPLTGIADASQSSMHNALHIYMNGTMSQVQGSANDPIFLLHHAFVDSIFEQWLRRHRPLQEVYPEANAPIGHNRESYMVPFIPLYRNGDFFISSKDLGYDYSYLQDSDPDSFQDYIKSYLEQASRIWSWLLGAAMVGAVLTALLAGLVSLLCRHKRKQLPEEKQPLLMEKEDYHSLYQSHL

[6] = Table 2, synthetic diarylalkanes and/or diarylalkanols, read-out: Tyrosinase Inhibition (IC50)
[7] = read-out: IC50 for inhibition of tyrosinase
[8] = Mus musculus, B16 F1 cells, with β-MSH induction, read-out: IC50 for melanin formation, induced experiment
[9] = Table 3, mouse B16 F1 cells, β-MSH induction, read-out: MSH Induced Melanin Inhibition IC50
[10] = Mus musculus, B16 F1 cells, without β-MSH induction, read-out: IC50 for melanin formation, endogenous experiment
[11] = Table 3, mouse B16 F1 cells, no β-MSH, read-out: Endogenous Melanin Inhibition IC50

Sequence of mushroom tyrosinase (C7FF04 1-392 limits assumed): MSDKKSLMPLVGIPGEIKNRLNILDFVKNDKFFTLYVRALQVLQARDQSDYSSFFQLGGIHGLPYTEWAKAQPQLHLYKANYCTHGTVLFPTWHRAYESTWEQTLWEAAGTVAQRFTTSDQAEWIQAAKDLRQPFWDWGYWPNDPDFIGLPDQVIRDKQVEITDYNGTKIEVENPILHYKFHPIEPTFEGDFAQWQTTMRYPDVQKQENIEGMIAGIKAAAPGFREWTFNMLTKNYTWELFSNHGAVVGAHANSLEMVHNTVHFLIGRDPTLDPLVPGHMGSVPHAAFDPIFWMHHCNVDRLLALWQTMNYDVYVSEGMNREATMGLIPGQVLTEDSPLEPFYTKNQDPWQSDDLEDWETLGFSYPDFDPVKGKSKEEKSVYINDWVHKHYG

COc1cc(CCC(O)c2ccc(O)cc2O)ccc1O (centres unmarked) [1-(2,4-dihydroxyphenyl)-3-(3′-methoxy-4′-hydroxyphenyl)-1-propanol]
Tyrosinase inhibitory activity in words (mushroom tyrosinase): quite strong tyrosinase inhibitory activity

COc1ccc(C(O)CCc2ccc3c(c2)OCCCCO3)c(O)c1 (centres unmarked) [1-(2-hydroxy-4-methoxyphenyl)-3-(2′,3′,4′,5′-tetrahydro-benzo(b)dioxoin-8′-yl)-1-propanol]
IC50 (mushroom tyrosinase; [6]): 72 µM
IC50 (mushroom tyrosinase; [7]): 72 µM

COc1ccc(C(O)CCc2ncc(Cl)n2C)c(O)c1 (centres unmarked) [3-(5′-chloro-1′-methyl-1′-hydro-imidazol-2′-yl)-1-(2-hydroxy-4-methoxyphenyl)-1-propanol]
IC50 (mushroom tyrosinase; [6]): 225 µM
IC50 (mushroom tyrosinase; [7]): 225 µM

O=c1cc(CO)occ1O [Kojic acid, kojic acid, reference compound]
IC50 (DOPA oxidase activity): 410 µM
Time until tyrosinase activity was totally restored following incubation (tyrosinase): 1 h
IC50 (B16 F1 cells [1]; [8]): 67 µM
IC50 (B16 F1 cells [1]; [9]): 67 µM
Cell Toxicity (LDH) (B16 F1 cells [2]; 250 μM treated wells): 0.260
IC50 (B16 F1 cells [3]; [10]): 170 µM
IC50 (B16 F1 cells [3]; [11]): 170 µM

COc1ccc(O)c(CCCc2ccc(O)cc2OC)c1 [UP288, 1-(2-methoxy-4-hydroxyphenyl)-3-(2′-hydroxy-5′-methoxyphenyl)-propane]
Tyrosinase inhibitory activity in words (mushroom tyrosinase): as potent a tyrosinase inhibitor as kojic acid; also recorded: strong tyrosinase inhibition activity
IC50 (B16 F1 cells [1]; [9]): 105 µM
Cell Toxicity (LDH) (B16 F1 cells [2]; mouse, 4 days, 250 μM): 0.315
Inhibition of melanin production relative to kojic acid, in words (B16 F1 cells [3]): comparable to kojic acid; also recorded: at least as good, if not better inhibitors than kojic acid
IC50 (B16 F1 cells [3]; [11]): 108 µM

COc1ccc(CCCc2ccc(O)cc2O)c(OC)c1C [UP302a, 1-(3-methyl-2,4-dimethoxyphenyl)-3-(2′,4′-dihydroxyphenyl)-propane]
Tyrosinase inhibitory activity in words (mushroom tyrosinase): strong tyrosinase inhibitory activity
Resumption of tyrosinase activity after incubation with inhibitor (tyrosinase): not resumed for several days
Type of tyrosinase inhibition (tyrosinase; inhibitor 0, 261, 522, 1044 nM, L-DOPA 0.75, 1.25, 2.5 mM): powerful competitive inhibitor
Inhibition of MSH induced melanin production relative to kojic acid (B16 F1 cells [1]; B-16 cell line): significantly greater than kojic acid
IC50 (B16 F1 cells [1]; [8]): 40 µM
IC50 (B16 F1 cells [1]; [9]): 40 µM
Cell Toxicity (LDH) (B16 F1 cells [2]; mouse, 4 days, 250 μM): 0.265
Inhibition of melanin production relative to kojic acid, in words (B16 F1 cells [3]): at least as good, if not better inhibitors than kojic acid
IC50 (B16 F1 cells [3]; [10]): 28 µM
IC50 (B16 F1 cells [3]; [11]): 28 µM

CC(=O)Cc1cc(=O)c2c(C)cc(O)c([C@@H]3O[C@H](CO)[C@@H](O)[C@H](O)[C@H]3O)c2o1 [aloesin]
IC50 (DOPA oxidase activity): 700 µM
IC50 [4]: 167 µM
IC50 [5]: 920 µM

OC[C@H]1O[C@@H](Oc2ccc(O)cc2)[C@H](O)[C@@H](O)[C@@H]1O [arbutin]
IC50 (DOPA oxidase activity): 3020 µM

COc1ccc(O)c(C(O)CCc2ccc(OC)c(OC)c2)c1 (stereo not drawn) [l-(2-hydroxy-5-methoxyphenyl)-3-(3′,4′-dimethoxyphenyl)-1-propanol]
IC50 (mushroom tyrosinase; [6]): 30 µM
